In patent US10273517B2 (The Board of Regents of the University of Oklahoma, priority 2011, dated 2019):
“Also recorded” adds a separate entry of the source.

Key:
[1] = tested on: recombinant Comononas testosteroni synthase (CtTS); assay: Polymer grafting of testosteronan onto acceptors using CtTS (agarose gel, stoichiometric size control); type: biochemical, Comamonas testosteroni; conditions: acceptor 15 or 30 μM, monosaccharides/glycosides first extended step-wise with two UDP-sugars, Stains-all
Experimental: The recombinant Comononas testosteroni synthase was incubated with both UDP-sugars and various acceptors (note: monosaccharides or glycosides first subjected to two extension steps via CtTS enzyme before adding both UDP sugars) OR ‘no acceptor’ in reaction buffer. The reactions were then subjected to agarose gel analysis with Stains-all dye detection. From left to right, the lanes are as follows: (1) HA LoLadder standard; (2) ‘no acceptor’ (de novo synthesis); (3) p-Nitrophenyl-β-D-glucuronide (15 μM); (4) p-Nitrophenyl-β-D-glucuronide (30 μM); (5) GlcUA (15 μM); (6) GlcUA (30 μM); (7) GlcNAc (15 μM); (8) GlcNAc (30 μM); (9) AFA=GlcUA-fluorescein-GlcUA (15 μM); (10) AFA (30 μM); (11) Hep4=base de-acetylated, nitrous acid, & reduced heparosan tetrasaccharide (15 μM); and (12) Hep4 (30 μM). Size control (i.e., differences in molecular weight between 15 and 30 μM) is noted with certain acceptors.
The recombinant Comononas testosteroni synthase was incubated with both UDP-sugars and various acceptors OR ‘no acceptor’ in reaction buffer. From left to right in FIG. 21, the lanes are listed below in Table 3.
For all acceptors except Hep4 and AFA, the final acceptor was produced in situ before elongation by extending step-wise with the next two appropriate UDP-sugars. For example, GlcUA was extended first with UDP-GlcNAc, then UDP-GlcUA (making a trisaccharide) before the complete polymerization reaction components (i.e., a mixture of many equivalents of UDP-GlcUA and UDP-GlcNAc together to allow the production of long polymer chains) were added. Two different concentrations of the acceptor were added (either 15 or 30 μM as noted) to test the effect of stoichiometric size control.

[2] = tested on: recombinant Comamonas testosteronan synthase (CtTS); assay: Radiolabeled sugar polymerization assay, acceptor specificity of CtTS; type: biochemical, Comamonas testosteroni KF-1; conditions: radiolabeled UDP-sugars; acceptor 1 μg
Experimental: FIG. 4 graphically depicts the acceptor specificity of CtTS. Extension of exogenous polysaccharide by recombinant Comamonas testosteronan synthase was measured. Activity assays were performed with radiolabeled UDP-sugars in the presence of hyaluronan, unsulfated chondroitin, heparosan or sonicated Comamonas polysaccharide.
Acceptor Specificity of CtTS: To identify the acceptor preference of CtTS, radiolabeled sugar polymerization assays were performed in the presence of various GAG acceptors. In many, but not all, GAG synthases, exogenous cognate polysaccharide will increase the signal in sugar incorporation assays by bypassing the slower de novo initiation phase (DeAngelis et al., 1999 and 2004); the elongation phase is much more rapid; thus, higher activity is observed. Typically, non-cognate GAG polymers with different glycosidic linkage patterns are very poor or non-functional acceptors for the known GAG synthases in vitro. Hyaluronan, unsulfated chondroitin and heparosan as well as polysaccharide extract from C. testosteroni were tested. Hyaluronan and heparosan tetrasaccharides were also tested for their abilities to act as acceptors. […] To confirm that CtTS is able to directly extend a heparosan acceptor so as to rule out an artifactual stabilizing or conformational effect in the radioassays, an ^125I-labeled tetrasaccharide heparosan acceptor was also tested in vitro in the presence of only UDP-GlcNAc for single sugar addition, or UDP-GlcNAc and UDP-GlcUA for polymerization.
Radiolabeled sugar incorporation assays (25 μl, 30 minutes at 22° C.) were performed using clarified lysates (60 μg total protein) in the presence of 0.05 mM UDP-GlcUA or UDP-GlcNAc as carrier with UDP-[^3H]GlcUA or UDP-[^3H]GlcNAc (0.1 μCi/assay) (NEN Perkin Elmer, Waltham, Mass.) with various unlabeled UDP-sugars (1 mM) or no second sugar as a negative control. The reaction buffer was 50 mM Tris, pH 7.2, 5 mM MgCl2; these conditions were obtained after limited optimization trials. […]

[3] = tested on: recombinant Comamonas testosteronan synthase (CtTS); assay: Radiolabeled sugar incorporation assay, donor sugar specificity of CtTS; type: biochemical, Comamonas testosteroni KF-1; conditions: unlabeled UDP-sugar 1 mM, clarified lysate, 30 minutes at 22° C.; for activity (incorporation of [3H]GlcUA) with the unlabeled UDP-sugar as second precursor: UDP-[3H]GlcUA tracer; for incorporation of [3H]GlcNAc with the unlabeled UDP-sugar as second precursor: UDP-[3H]GlcNAc tracer
Experimental: FIG. 3 graphically depicts the donor specificity of CtTS.
In order to determine the preferred hexosamine sugar donor utilized for putative GAG-like heteropolysaccharide biosynthesis, activity assays were performed with clarified lysates from recombinant bacteria expressing CtTS using two different UDP-sugars simultaneously in polymerization reactions in vitro. […] By further studying acceptor specificity and using GAG degrading enzymes that are specific for these GAGs, the nature of the polysaccharide formed by CtTS in vitro was characterized.
(§1) Radiolabeled sugar incorporation assays (25 μl, 30 minutes at 22° C.) were performed using clarified lysates (60 μg total protein) in the presence of 0.05 mM UDP-GlcUA or UDP-GlcNAc as carrier with UDP-[^3H]GlcUA or UDP-[^3H]GlcNAc (0.1 μCi/assay) (NEN Perkin Elmer, Waltham, Mass.) with various unlabeled UDP-sugars (1 mM) or no second sugar as a negative control. The reaction buffer was 50 mM Tris, pH 7.2, 5 mM MgCl2; these conditions were obtained after limited optimization trials. Certain reactions used acceptors (1 μg) to bypass de novo initiation, including HA, heparosan, or Ct polysaccharide (sonicated 10 minutes on ice to increase the number of termini).
(§2) Reactions were incubated at the indicated temperatures for the times noted, and then stopped with 2% final SDS and separated by descending paper chromatography (65:35 ethanol/1 M ammonium acetate buffer, Whatman 3MM paper). This method enabled the separation of GAG polysaccharides with greater than ^˜14 sugar units, which remain at the origin, from smaller oligomers and unincorporated nucleotide sugars that migrate down the strip. The origin of the strip was cut out and subjected to liquid scintillation counting (BIOSAFE™, RPI Corp, Mt. Prospect, Ill.).

[4] = tested on: recombinant Comamonas testosteronan synthase (CtTS); assay: Radiolabeled sugar incorporation assay, divalent cation specificity of CtTS; type: biochemical, Comamonas testosteroni KF-1; conditions: 5 mM Mg2+ or 5 mM Mn2+ or 2 mM EDTA; 30 minutes at 22° C.
Experimental: Radiolabeled sugar incorporation assays were performed (30 minutes at 22° C., as described in methods) in the presence of 5 mM Mg^2+ or 5 mM Mn^2+ or 2 mM EDTA.
as §1, §2

heparin lyase I = heparin lyase I (Pedobacter heparinus, UniProt Q05819); assay: GAG degrading enzyme challenge: heparin lyase I; type: in vitro ADME
Description: (§3) Because of this finding, it is believed that while CtTS is able to utilize heparosan as an acceptor molecule due to a hypothetical shared structural feature, this GAG is not the native substrate.

[5] = tested on: Proteus vulgaris chondroitinase ABC; assay: GAG degrading enzyme challenge: chondroitinase ABC; type: in vitro ADME
Description: as §3

[6] = tested on: Streptomyces hyalurolyticus HA lyase; assay: GAG degrading enzyme challenge: HA lyase; type: in vitro ADME
Description: as §3

Sequence of heparin lyase I (Q05819 22-384): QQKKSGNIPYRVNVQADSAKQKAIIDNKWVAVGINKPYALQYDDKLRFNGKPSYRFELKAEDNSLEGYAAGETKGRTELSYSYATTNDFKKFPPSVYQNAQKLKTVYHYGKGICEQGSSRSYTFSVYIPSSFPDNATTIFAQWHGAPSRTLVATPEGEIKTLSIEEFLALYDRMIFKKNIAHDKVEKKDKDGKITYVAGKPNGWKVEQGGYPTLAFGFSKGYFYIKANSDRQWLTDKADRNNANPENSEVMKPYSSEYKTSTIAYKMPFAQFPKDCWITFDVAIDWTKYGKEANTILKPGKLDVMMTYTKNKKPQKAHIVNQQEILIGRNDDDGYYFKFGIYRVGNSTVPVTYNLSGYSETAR

`O=C(O)[C@H]1O[C@@H](Oc2ccc([N+](=O)[O-])cc2)[C@H](O)[C@@H](O)[C@@H]1O` [p-Nitrophenyl-D-glucuronide, p-Nitrophenyl-β-D-glucuronide] was tested, and the “stoichiometric size control of testosteronan product by acceptor” value (“stoichiometric size control” below) [1] was “allowed efficient size control”.
“[-4-D-GlcUA-β1,4-D-GlcNAc-α1-]n [heparosan]” was tested, and the “use of exogenous GAG polysaccharide as acceptor by CtTS” value (shortened to “use of exogenous GAG polysaccharide”) [2] was “able to use; also recorded: capable of utilizing”.
For `CC(=O)N[C@H]1[C@@H](OP(=O)(O)OP(=O)(O)OC[C@H]2O[C@@H](n3ccc(=O)[nH]c3=O)[C@H](O)[C@@H]2O)O[C@H](CO)[C@@H](O)[C@@H]1O` [UDP-GlcNAc], the “activity (incorporation of [3H]GlcUA) with the unlabeled UDP-sugar as second precursor” value [3] was “Significant activity”.
`O=C(O)[C@H]1O[C@H](OP(=O)(O)OP(=O)(O)OC[C@H]2O[C@@H](n3ccc(=O)[nH]c3=O)[C@H](O)[C@@H]2O)[C@H](O)[C@@H](O)[C@H]1O` [UDP-GalUA] was tested, and the “incorporation of [3H]GlcNAc with the unlabeled UDP-sugar as second precursor” value (“incorporation of [3H]GlcNAc” for short) [3] was “only the reactions containing UDP-GlcUA showed significant incorporation”.
`CC(=O)N[C@H]1C(O)O[C@H](CO)[C@@H](O)[C@@H]1O` (stereo partly shown) [GlcNAc, N-acetylglucosamine] was tested, and the “stoichiometric size control” value [1] was “did not”.
In the case of `[Mn+2]` [Mn^2+], the “GT activity of CtTS in the presence of divalent cation or chelator” value (from here on “GT activity of CtTS”) [4] is reported as “supported GT activity”.
“[-4-D-GlcUA-α1,4-D-GlcNAc-α1-]n [testosteronan]” was tested, and the “sensitivity to degradation by heparin lyase I” value (heparin lyase I) was “did not digest”.
chondroitin was tested, and the “use of exogenous GAG polysaccharide” value [2] was “not”.
`[Mg+2]` [Mg^2+] was tested, and the “GT activity of CtTS” value [4] was “roughly twice as for Mn^2+”.
With `O=C(O)[C@@H]1O[C@@H](OP(=O)(O)OP(=O)(O)OC[C@H]2O[C@@H](n3ccc(=O)[nH]c3=O)[C@H](O)[C@@H]2O)[C@H](O)[C@@H](O)[C@@H]1O` [UDP-IdoUA] the “incorporation of [3H]GlcNAc” value [3] was “only the reactions containing UDP-GlcUA showed significant incorporation”.
With `O=C(O)[C@H]1O[C@H](OP(=O)(O)OP(=O)(O)OC[C@H]2O[C@@H](n3ccc(=O)[nH]c3=O)[C@H](O)[C@@H]2O)[C@H](O)[C@@H](O)[C@@H]1O` [UDP-GlcUA] the “incorporation of [3H]GlcNAc” value [3] was “significant incorporation”.
`O=C(O)CN(CCN(CC(=O)O)CC(=O)O)CC(=O)O` [EDTA] was tested, and the “GT activity of CtTS” value [4] was “eradicated the polymerization signal”.
`CC(=O)N[C@H]1[C@@H](OP(=O)(O)OP(=O)(O)OC[C@H]2O[C@@H](n3ccc(=O)[nH]c3=O)[C@H](O)[C@@H]2O)O[C@H](CO)[C@H](O)[C@@H]1O` [UDP-GalNAc] was tested, and the “activity (incorporation of [3H]GlcUA) with the unlabeled UDP-sugar as second precursor” value [3] was “not”.
In the case of “[-4-D-GlcUA-α1,4-D-GlcNAc-α1-]n [synthetic polysaccharide]”, the “sensitivity to degradation by Proteus vulgaris chondroitinase ABC” value [5] is reported as “insensitive to degradation”, the “sensitivity to degradation by Streptomyces hyalurolyticus HA lyase” value [6] is reported as “insensitive to degradation” and the “sensitivity to degradation by heparin lyase I” value (heparin lyase I) is reported as “insensitive to degradation”.
For `O=C[C@H](O)[C@@H](O)[C@H](O)[C@H](O)C(=O)O` [GlcUA, glucuronic acid], the “stoichiometric size control” value [1] was “allowed efficient size control”.
For GlcUA-fluorescein-GlcUA [AFA], the “stoichiometric size control” value [1] was “efficient size control”.
In the case of “[-4-D-GlcUA-β1,3-D-GlcNAc-β1-]n [hyaluronan]”, the “use of exogenous GAG polysaccharide” value [2] is reported as “not”.
